Literature values as cited in patent publication US8585707B2, “Continuous low irradiance photodynamic therapy method” (priority 2006, dated 2013).

Conditions: after intravenous administration, attributed to extended half-life

For Photofrin, the “time the level of drug in the tissue remains stable” value is listed as “over 36 hours”.
